# In US9469615B2, “Quinoxalines and AZA-quinoxalines as CRTH2 receptor modulators” (Merck Sharp & Dohme Corp., priority 2010, dated 2016):
# Target: T1, hCRTH2 (Homo sapiens, UniProt Q9Y5Y4)
# T1 construct: expressed in transfected cells; host or cells: HEK (human embryonic kidney) cells expressing hCRTH2; membrane preparation
# T1 sequence (Q9Y5Y4 1-395): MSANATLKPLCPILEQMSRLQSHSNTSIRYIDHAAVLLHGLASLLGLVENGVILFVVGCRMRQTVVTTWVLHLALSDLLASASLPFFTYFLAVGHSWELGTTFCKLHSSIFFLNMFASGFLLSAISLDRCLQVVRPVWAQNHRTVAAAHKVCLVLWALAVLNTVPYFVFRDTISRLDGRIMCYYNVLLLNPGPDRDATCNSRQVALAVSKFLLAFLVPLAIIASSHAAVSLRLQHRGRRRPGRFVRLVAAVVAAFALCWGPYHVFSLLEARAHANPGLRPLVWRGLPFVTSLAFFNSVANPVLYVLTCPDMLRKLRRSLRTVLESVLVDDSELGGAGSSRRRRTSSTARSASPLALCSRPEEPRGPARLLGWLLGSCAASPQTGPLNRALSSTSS
# Test: Radioligand binding assay ([3H]PGD2 competition, HEK-hCRTH2 membranes)
# Conditions: [3H]PGD2 binding, rated A-E (Table A)
# Method in brief: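 Using membranes of an HEK line stably carrying hCRTH2, ligands were tested against [3H]PGD2 (3.0 nM) in pH 7.4 Tris buffer containing 2 mM MnCl2 and 1 mM EDTA. After one hour at room temperature, filters were washed cold and counted.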
row,SMILES,Ki [nM]
1,"CO/N=C(/c1ccccn1)C1CCN(C(=O)c2ccc3nc(-c4ccccc4)c(CCCCC(=O)O)nc3c2)CC1 [compound 114, 7-[[4-[(E)-(methoxyimino)-2-pyridinylmethyl]-1-piperidinyl]carbonyl]-3-phenyl-2-quinoxalinepentanoic acid]",2.1 to 20
2,"O=C(O)CCCCc1nc2cc(C(=O)N3CC=C(c4ccccc4)CC3)ccc2nc1-c1ccccc1 [compound 116, 7-(4-phenyl-1,2,3,6-tetrahydropyridine-1-carbonyl)-3-phenyl-2-quinoxalinepentanoic acid]",2.1 to 20
3,"O=C(O)CCCCc1nc2cc(C(=O)N3CCC(n4c(=O)[nH]c5ccccc54)CC3)ccc2nc1-c1ccccc1 [compound 117, 7-[[4-(2,3-dihydro-2-oxo-1H-benzimidazol-1-yl)-1-piperidinyl]carbonyl]-3-phenyl-2-quinoxalinepentanoic acid]",2.1 to 20
4,"CS(=O)(=O)N1CC2(CCN(C(=O)c3ccc4nc(-c5ccccc5)c(CCCCC(=O)O)nc4c3)CC2)c2ccccc21 [compound 118, 7-[[1,2-dihydro-1-(methylsulfonyl)spiro[3H-indole-3,4′-piperidin]-1′-yl]carbonyl]-3-phenyl-2-quinoxalinepentanoic acid]",2.1 to 20
5,CN1C(=O)C2(CCN(C(=O)c3ccc4nc(-c5ccccc5)c(CCCCC(=O)O)nc4c3)CC2)c2ccccc21 [compound 119],2.1 to 20
6,"O=C(O)CCCCc1nc2cc(C(=O)N3CCC4(CC3)COc3ccccc34)ccc2nc1-c1ccccc1 [compound 120, 3-phenyl-7-(spiro[benzofuran-3(2H),4′-piperidin]-1′-ylcarbonyl)-2-quinoxalinepentanoic acid]",2.1 to 20
7,"O=C(O)CCCCc1nc2cc(C(=O)N3CCC4(CCc5ccccc54)CC3)ccc2nc1-c1ccccc1 [compound 121, 7-[(2,3-dihydrospiro [1H-indene-1,4′-piperidin]-1′-yl)carbonyl]-3-phenyl-2-quinoxalinepentanoic acid]",2.1 to 20
8,"CN1CC2(CCN(C(=O)c3ccc4nc(-c5ccccc5)c(CCCCC(=O)O)nc4c3)CC2)c2ccccc21 [compound 122, 7-[(1,2-dihydro-1-methylspiro[3H-indole-3,4′-piperidin]-1′-yl)carbonyl]-3-phenyl-2-quinoxalinepentanoic acid]",2.1 to 20
9,"CC(=O)N1CC2(CCN(C(=O)c3ccc4nc(-c5ccccc5)c(CCCCC(=O)O)nc4c3)CC2)c2ccccc21 [compound 123, 7-[(1-acetyl-1,2-dihydrospiro[3H-indole-3,4′-piperidin]-1′-yl)carbonyl]-3-phenyl-2-quinoxalinepentanoic acid]",2.1 to 20
10,"N#CC1(c2ccccc2)CCN(C(=O)c2ccc3nc(-c4ccccc4)c(CCCCC(=O)O)nc3c2)CC1 [compound 124, 7-[(4-cyano-4-phenyl-1-piperidinyl)carbonyl]-3-phenyl-2-quinolaxinepentanoic acid]",2.1 to 20
11,"O=C(O)CCCCc1nc2cc(C(=O)N3CCC4(CC3)C(=O)NCN4c3ccccc3)ccc2nc1-c1ccccc1 [compound 125, 7-[(4-oxo-l-phenyl-1,3,8-triazaspiro[4.5]dec-8-yl)carbonyl]-3-phenyl-2-quinoxalinepentanoic acid]",2.1 to 20
12,"O=C(O)CCCCc1nc2cc(C(=O)N3CCC4(CC3)C(=O)NCN4c3ccccc3)ccc2nc1-c1ccc(F)cc1 [compound 126, 3-(4-fluorophenyl)-7-[(4-oxo-1-phenyl-1,3,8-triazaspiro[4.5]dec-8-yl)carbonyl]-2-quinoxalinepentanoic acid]",2.1 to 20
13,"O=C(O)CCCCc1nc2cc(C(=O)N3CC=C(c4ccccc4)CC3)ccc2nc1-c1ccc(F)cc1 [compound 127, 5-(3-(4-fluorophenyl)-7-(4-phenyl-1,2,3,6-tetrahydropyridine-1-carbonyl)quinoxalin-2-yl)pentanoic acid]",2.1 to 20
14,N#CC1(c2ccccc2)CCN(C(=O)c2ccc3nc(-c4ccc(F)cc4)c(CCCCC(=O)O)nc3c2)CC1 [compound 128],2.1 to 20
